The source of these data is patent publication USRE44543E1, “Naphthalenic compounds as termite bait toxicants” (priority 2002, dated 2013).

Assay [1] has as its system Formosan subterranean termite. In words: Field test of NHA pressure treated aspen wood in bait stations, New Orleans. The assay is classed as in vivo, Coptotermes formosanus. The source says: NHA as a wood preservative has been extensively studied (F. Green III, T. A. Kuster, L. Ferge, and T. L. Highley, 1997. Protection of southern pine from fungal decay and termite damage with N,N-Naphthaloylhydroxylamine. Inter. Biodeter. and Biodeg. 39(2-3):103-111; D. M. Crawford and F. Green III, 1999. Protection of southern pine using N,N-Naphthaloylhydroxylamine: Field tests, soft-rot cellars and aquatic bioassay leach testing. Internat. Res. Group on Wood Preserv. Doc. No: IRG/WP 99-30204). Monitoring termite activity in baiting systems is conducted by the use of wooden interceptors constructed from out of aspen, southern yellow pine, white or yellow poplar. In humid environments such as the Southeastern United States, a problem with degradations of such interceptors by fungi frequently occurs. We have noticed that low concentrations of NHA from 200 to 1000 ppm is acceptable to retard fungal growth without presenting any deleterious effect in the termites when incorporated into wooden materials. For bait efficacy, when the chemical is impregnated on pieces of wood the concentration that is retained varies as well as the efficacy. […]

For a further assay, the system named is C. formosanus. In words: ARS bait matrix bioassay with NHA sodium salt, protocol of Example 1 (Example 2). Format: in vivo, Coptotermes formosanus. The following applies: concentrations greater than 500 and up to 1500 ppm; also effective. The method, then:
For bait matrices with a final concentrations of NHA sodium salt of either 250 ppm or 500 ppm, the following procedure was used. A total of 25 mg or 50 mg, respectively of the NHA sodium salt was weighed using a Mettler balance. The NHA sodium salt complex was placed into a 50 ml sterile screw cap conical tube (#62.547.004; Sarstedt, Newton, N.C.) and dissolved with 40 ml nutritive solution described in Example 2 of U.S. patent application Ser. No. 09/294,499 filed Apr. 20, 1999, hereby incorporated by reference. Under a laminar flow hood, this product was mixed with 27 ml more of sterile nutritional supplement in a 250 ml sterile glass bottle (prepared as reported by M. G. Rojas and J. A. Morales-Ramos, April 2001, “Bait matrix for delivery of chitin synthesis inhibitors to the Formosan subterranean termite [Isoptera: Rhinotermitidae],” J. Econ. Entomol. 94(2) :506-510) hereby incorporated by reference. The bottle was tightly closed with a screw cap and manually shaken for 2 minutes. The mixture was added to 33 g of sterile cellulose as reported by Rojas and Morales-Ramos (2001) supra. The mixture was manually homogenized using a stainless steel spatula. To encase the bait matrix, tubes made of fibrous casing material (#124B; L.E.M. Products, Inc., Miamitown, Ohio) were cut into 150 mm long portions as reported by Rojas and Morales-Ramos (2001) supra. Fifty grams of bait matrix containing NHA sodium salt was compacted into one end of the inlet tube, and the open end and of the inlet tube was closed with a rubber band. The bait casing was placed inside of the foraging box adjacent to a 10 g piece of pine wood, taking care that it was partially covered with sand. Control bait matrix was prepared minus NHA, and presented in the same way as the treatment matrix to Formosan termites taken from three different colonies, with two boxes per locality totaling six boxes of 2500 termites per treatment. (Rojas and Morales-Ramos [2001] supra). All the experimental boxes were maintained under dark conditions at 27±1° C., and 90±2% relative humidity. Observations were done every 72 hours until all the termites died. The time to reach 100% mortality was measured and recorded. Mean comparisons among treatments and control were conducted.
N-hydroxynaphthyalimide (NHA) which is commercially available as pure chemical, is dissolved in distilled water using a sterile container; At concentrations of 500 ppm, NHA is effective as bait active ingredient taking a mean time to kill C. formosanus in 2½ months in lab conditions. […]

`O=C1c2cccc3cccc(c23)C(=O)N1O` [NHA, N-hydroxynaphthalimide]: in assay [1], the “optimal NHA concentration after field testing” value was 500 ppm. In the assay with C. formosanus, the “mean killing times versus 500 ppm” value is “not significantly different”.
